Measured values taken from US20060165798A1, “Oral osmotic dosage form having a high flux membrane” (priority 2005, published 2006).

Type: physicochemical
Method: The measured values for the tested systems were Δπ=245 atmospheres, A=2.41 cm^2, S=333 mg/ ml. Thickness of the membrane was measured directly with a table micrometer. Osmotic pressure was measured on saturated solutions of potassium chloride at 37° C. using a Knauer model VPO vapor pressure osmometer and standard reference solutions of known osmotic pressure for comparison. Surface area of the tablet core was determined by first measuring the dimensions of the tablet core and then calculating surface area using standard mensuration formulae. Drug solubility was determined by measuring the concentration of a saturated solution of potassium chloride by conductivity analysis using a conductivity meter and reference solutions of potassium chloride of known aqueous concentrations. Average release rate was calculated by measuring the mass of potassium chloride released per 2-hour intervals of time according to the experimental procedures described in Example 3. Then, the total mass of potassium chloride released was summed for all whole 2-hour intervals between 20% and 70% (100 mg to 350 mg of potassium chloride) of the initial dose present within the dosage form (500 mg). Finally, the total mass of drug released during these whole intervals was divided by the sum of these time intervals to arrive at the average release rate. […]

[Cl-].[K+] [potassium chloride]
drug solubility S (saturated aqueous solution): 333 mg/mL | osmotic pressure Δπ (saturated solution at 37° C.): 245 atmospheres
